What all share (assay type): cell-based
Assay [1] deals with T1, IKZF2 (Helios) (Homo sapiens, UniProt Q96SW2+Q9UKS7).
T1 construct: Leu-Asp junction (codons ctcgac before the linker); mScarlet (behind P2A) (C, cleaved yes); expressed in transfected cells
Description: IKZF2 reporter degradation assay (HEK 293T IKZF2-mNeonGreen reporter cell line). The conditions noted are these: HEK-293T, 24 h, 1 μM compound, HEK 293T IKZF2 reporter cells, 24 hours incubation. In a few lines: (§1)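 DC50 values come from four-parameter logistic regression of percent mNeonGreen-positive cells, imaged with mScarlet-based segmentation after 24 h compound exposure at 37° C. Quadruplicate wells had at most 0.5% DMSO. Reporters are C-terminal IKZF-mNeonGreen fusions with P2A-mScarlet, stably expressed in clonal HEK 293T lines.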

Assay [2] deals with T2, IKZF2 (Helios) (Homo sapiens, UniProt Q9UKS7).
T2 construct: Leu-Asp junction (codons ctcgac before the linker); mScarlet (behind P2A) (C, cleaved yes); expressed in transfected cells
The assay is described as above. Particulars: HEK 293T IKZF2 reporter cells, 24 hours incubation. The essentials: as §1

A further assay has as its target T3, IKZF3 (Aiolos) (Homo sapiens, UniProt Q9UKT9).
T3 construct: Leu-Asp junction (codons ctcgac before the linker); mScarlet (behind P2A) (C, cleaved yes); expressed in transfected cells
Description: IKZF3 reporter degradation assay (HEK 293T IKZF3-mNeonGreen reporter cell line). Particulars: HEK 293T IKZF3 reporter cells, 24 hours incubation. The essentials:
as §1

For a further assay, the target named is T4, IKZF1 (Ikaros) (Homo sapiens, UniProt Q13422).
T4 construct: mScarlet (behind P2A) (C, cleaved yes); expressed in transfected cells
Put plainly: IKZF1 reporter degradation assay (HEK 293T IKZF1-mNeonGreen reporter cell line). Particulars: HEK 293T IKZF1 reporter cells, 24 hours incubation. From the text:
Polycistronic plasmids were constructed for the mammalian expression of fluorescent reporter fusions of human transcription factors IKZF1 (Ikaros), IKZF2 (Helios), and IKZF3 (Aiolos). The respective protein sequences had their C-terminal end joined to a GGGGS linker repeated three times followed by mNeonGreen, P2A sequence, and mScarlet. The DNA sequences of the open reading frames are as follows:
IKZF1, IKZF2, and IKZF3 constructs were cloned into the UCOE Hygromycin expression vectors (Millipore Sigma). Reporter constructs were transfected using cationic lipid reagents into adherent HEK 293T cells and stable integrants were selected by treatment with 200 μg/mL hygromycin B. Clonal populations were obtained from the population of stable integrants either by limiting dilution or fluorescence activated cell sorting.
The clonal stable cell lines were maintained under constant 200 μg/mL hygromycin B selection while being passaged for use in the degradation assays. […] The fluorescence intensity of the IKZF1/2/3-mNeonGreen (FITC channel) and mScarlet (PE channel) reporters were routinely analyzed by flow cytometry to confirm consistent expression levels between experiments.
The IKZF1/IKZF2/IKZF3 degradation assays were carried out by harvesting the HEK 293T reporter cell lines and resuspending the cells in media formulated for reduced background fluorescence (FluoroBrite; Thermo Fisher). The respective cell lines were seeded at a density of 4000 cells/well into black-walled 384-well optical grade assay tissue culture plates. The cells were incubated overnight at 37° C. to allow for attachment to the assay plate. Dilutions of the compounds were prepared in DMSO from 10 mM compound stocks. The assay plates were treated with appropriate concentrations of the compounds by dispensing the DMSO dilutions in quadruplicate wells with an upper limit of 0.5% final DMSO.
After 24 hours incubation with the compounds, the assay plates were imaged on an ImageXpress Pico microscopy system (cells maintained at 37° C. during imaging) to obtain the fluorescent readouts. The assay plates were imaged in the FITC and Tetramethylrhodamine (TRITC) channels to obtain the mNeonGreen fluorescence intensity (reporter degradation data) and mScarlet fluorescence intensity (for cell segmentation). 293T-IKZF1 and 293T-IKZF3 reporter cell lines were imaged with exposures of 500 milliseconds (ms) for both FITC and TRITC channels, while the 293T-IKZF2 reporter cell line was imaged with exposures of 1000 ms for FITC and 1250 ms for TRITC. The resulting data was analyzed with Cell Reporter Xpress software using the 2-channel cell scoring analysis with a “percent positive” readout. The TRITC channel was selected for the “nuclei” segmentation with a threshold of 20 while the FITC channel was selected for the “Marker 1” segmentation and a threshold of 100 for the IKZF1 and IKZF3 reporter lines. […] The minimum segmentation width was set to 6 micrometers and the maximum segmentation width was set to 15 micrometers for all cell lines. The DC50 calculations were determined by regression to best fit four-parameter logistic curves using GraphPad Prism.

SMILES strings stand for the structures.

Consider 17 compounds from US20250100996A1, “HETEROCYCLOALKYL AND HETEROARYL COMPOUNDS AND PHARMACEUTICAL COMPOSITIONS THAT MODULATE IKZF2” (Plexium, Inc., priority 2021, published 2025).

T4 sequence (Q96SW2 whole entry partner): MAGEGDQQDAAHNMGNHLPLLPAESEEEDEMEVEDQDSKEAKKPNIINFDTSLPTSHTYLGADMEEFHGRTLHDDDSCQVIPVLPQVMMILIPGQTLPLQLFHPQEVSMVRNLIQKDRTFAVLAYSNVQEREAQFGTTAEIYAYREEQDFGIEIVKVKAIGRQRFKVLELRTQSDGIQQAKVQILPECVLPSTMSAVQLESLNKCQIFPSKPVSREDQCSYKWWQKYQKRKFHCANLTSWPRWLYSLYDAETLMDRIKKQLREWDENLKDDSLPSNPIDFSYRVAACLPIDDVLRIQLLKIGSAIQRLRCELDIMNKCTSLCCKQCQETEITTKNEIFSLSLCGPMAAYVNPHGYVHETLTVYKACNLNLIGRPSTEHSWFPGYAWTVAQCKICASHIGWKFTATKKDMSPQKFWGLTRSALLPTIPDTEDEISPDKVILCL
T4 sequence (Q16531 whole entry partner): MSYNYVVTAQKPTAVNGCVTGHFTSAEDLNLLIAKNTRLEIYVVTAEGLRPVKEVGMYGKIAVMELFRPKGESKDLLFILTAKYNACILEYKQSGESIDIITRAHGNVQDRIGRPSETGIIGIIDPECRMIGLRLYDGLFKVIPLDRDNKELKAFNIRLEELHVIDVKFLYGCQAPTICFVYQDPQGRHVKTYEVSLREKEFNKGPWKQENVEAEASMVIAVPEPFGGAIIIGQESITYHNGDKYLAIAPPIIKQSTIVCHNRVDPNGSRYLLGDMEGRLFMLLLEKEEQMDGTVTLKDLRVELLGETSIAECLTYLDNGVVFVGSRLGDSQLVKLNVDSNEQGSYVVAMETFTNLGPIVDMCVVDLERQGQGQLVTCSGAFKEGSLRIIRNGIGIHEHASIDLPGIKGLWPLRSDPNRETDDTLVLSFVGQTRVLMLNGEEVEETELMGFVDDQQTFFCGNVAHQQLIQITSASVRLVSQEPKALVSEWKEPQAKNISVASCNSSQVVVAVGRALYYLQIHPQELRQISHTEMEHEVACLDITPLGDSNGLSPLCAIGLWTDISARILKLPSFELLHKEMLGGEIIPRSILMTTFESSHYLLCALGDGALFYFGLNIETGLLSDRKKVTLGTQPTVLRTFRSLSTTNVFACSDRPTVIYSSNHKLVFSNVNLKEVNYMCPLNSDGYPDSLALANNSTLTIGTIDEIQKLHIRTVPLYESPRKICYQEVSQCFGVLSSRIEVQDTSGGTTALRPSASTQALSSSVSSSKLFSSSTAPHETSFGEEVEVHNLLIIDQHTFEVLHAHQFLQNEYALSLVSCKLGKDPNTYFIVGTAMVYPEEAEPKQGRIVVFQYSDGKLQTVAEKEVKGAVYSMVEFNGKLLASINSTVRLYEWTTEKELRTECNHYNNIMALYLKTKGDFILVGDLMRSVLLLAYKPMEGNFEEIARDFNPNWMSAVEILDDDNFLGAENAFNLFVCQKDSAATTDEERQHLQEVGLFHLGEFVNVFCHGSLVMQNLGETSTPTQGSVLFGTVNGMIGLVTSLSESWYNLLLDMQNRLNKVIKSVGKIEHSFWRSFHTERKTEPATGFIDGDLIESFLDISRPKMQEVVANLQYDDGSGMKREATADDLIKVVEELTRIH
T4 sequence (Q13422 whole entry): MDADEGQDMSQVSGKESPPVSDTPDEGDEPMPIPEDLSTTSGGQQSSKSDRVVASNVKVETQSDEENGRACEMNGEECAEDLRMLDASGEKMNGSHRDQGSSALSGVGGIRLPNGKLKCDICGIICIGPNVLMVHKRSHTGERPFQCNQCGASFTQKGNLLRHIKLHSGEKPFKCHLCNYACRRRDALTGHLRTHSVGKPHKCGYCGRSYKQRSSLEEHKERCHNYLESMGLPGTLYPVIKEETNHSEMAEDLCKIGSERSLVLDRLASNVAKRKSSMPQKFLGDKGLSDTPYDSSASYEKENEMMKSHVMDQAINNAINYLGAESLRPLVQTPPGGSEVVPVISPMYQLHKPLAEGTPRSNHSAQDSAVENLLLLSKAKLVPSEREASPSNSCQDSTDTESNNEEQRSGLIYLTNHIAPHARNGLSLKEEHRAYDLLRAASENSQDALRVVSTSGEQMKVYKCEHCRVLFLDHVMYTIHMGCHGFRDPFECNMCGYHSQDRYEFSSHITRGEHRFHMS
T3 sequence (Q96SW2 whole entry partner): as the sequence (Q96SW2 whole entry partner) above
T3 sequence (Q16531 whole entry partner): as the sequence (Q16531 whole entry partner) above
T3 sequence (Q9UKT9 whole entry): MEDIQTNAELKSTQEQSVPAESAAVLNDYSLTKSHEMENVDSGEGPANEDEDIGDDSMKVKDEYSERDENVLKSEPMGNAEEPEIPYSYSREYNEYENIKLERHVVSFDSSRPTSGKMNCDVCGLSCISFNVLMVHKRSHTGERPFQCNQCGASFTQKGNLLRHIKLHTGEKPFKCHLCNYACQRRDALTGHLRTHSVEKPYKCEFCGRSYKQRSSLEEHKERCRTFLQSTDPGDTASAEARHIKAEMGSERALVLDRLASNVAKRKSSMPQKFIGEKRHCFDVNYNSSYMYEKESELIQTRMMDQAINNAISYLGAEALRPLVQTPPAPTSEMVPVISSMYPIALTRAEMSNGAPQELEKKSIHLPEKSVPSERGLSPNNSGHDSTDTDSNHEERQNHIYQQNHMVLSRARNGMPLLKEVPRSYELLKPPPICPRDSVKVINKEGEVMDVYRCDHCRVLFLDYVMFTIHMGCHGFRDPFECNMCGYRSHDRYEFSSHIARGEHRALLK
T1 sequence (Q9UKS7 whole entry): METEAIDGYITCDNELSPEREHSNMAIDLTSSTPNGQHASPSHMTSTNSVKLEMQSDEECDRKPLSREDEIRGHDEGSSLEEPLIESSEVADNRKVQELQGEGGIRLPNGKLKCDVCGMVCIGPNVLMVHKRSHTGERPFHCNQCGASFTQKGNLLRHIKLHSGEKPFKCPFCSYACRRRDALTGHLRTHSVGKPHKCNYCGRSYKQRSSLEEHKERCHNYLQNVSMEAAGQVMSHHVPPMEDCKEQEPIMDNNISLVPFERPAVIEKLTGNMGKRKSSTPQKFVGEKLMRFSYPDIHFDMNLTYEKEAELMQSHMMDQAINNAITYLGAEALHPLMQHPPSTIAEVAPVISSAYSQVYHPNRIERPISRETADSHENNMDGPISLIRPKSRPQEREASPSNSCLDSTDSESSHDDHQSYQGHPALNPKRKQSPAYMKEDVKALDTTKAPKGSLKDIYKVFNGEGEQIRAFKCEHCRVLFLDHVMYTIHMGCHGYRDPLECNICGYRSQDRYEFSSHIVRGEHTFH
T1 sequence (Q96SW2 whole entry): as the sequence (Q96SW2 whole entry partner) above
T1 sequence (Q16531 whole entry partner): as the sequence (Q16531 whole entry partner) above
T2 sequence (Q9UKS7 whole entry): as the sequence (Q9UKS7 whole entry) above
T2 sequence (Q96SW2 whole entry, further chain): as the sequence (Q96SW2 whole entry partner) above
T2 sequence (Q16531 whole entry partner): as the sequence (Q16531 whole entry partner) above

One may read the inhibition as the drop in the measured response relative to a control, in per cent. High values mean a strong effect, low ones a weak effect. One may read the DC50 as the concentration giving 50% degradation. Higher therefore signals a less potent degrader. Consider `O=C1CCC(N2Cc3cc(OC4CCCCC4N4CC(c5ccnc(C(F)(F)F)c5)C4)ccc3C2=O)C(=O)N1` (centres unmarked) [Compound 1-B, 3-(1-oxo-5-((2-(3-(2-(trifluoromethyl)pyridin-4-yl)azetidin-1-yl)cyclohexyl)oxy)isoindolin-2-yl)piperidine-2,6-dione], for which, on IKZF2 (Helios) [1], the inhibition at 1 µM is 32.1%. In addition, the results for the DC50 at IKZF2 (Helios) [2], at IKZF3 (Aiolos) and at IKZF1 (Ikaros) were 0.525 µM, above 30 µM and above 30 µM, respectively.

At IKZF2 (Helios) [1], `O=C1CCC(N2Cc3cc(OC4CCCCC4N4CC(c5cnccn5)C4)ccc3C2=O)C(=O)N1` (centres unmarked) [Compound 2-B, 3-(1-oxo-5-((2-(3-(pyrazin-2-yl)azetidin-1-yl)cyclohexyl)oxy)isoindolin-2-yl)piperidine-2,6-dione] showed an inhibition at 1 µM of 63.1%. Further, the DC50 at IKZF2 (Helios) [2] was 0.12 µM; at IKZF3 (Aiolos) it was above 30 µM; at IKZF1 (Ikaros) it was above 30 µM.

Turning to `O=C1CCC(N2Cc3cc(OC4CCCCC4N4CC(c5ncc(F)cn5)C4)ccc3C2=O)C(=O)N1` (centres unmarked) [Compound 6-B, 3-(5-((2-(3-(5-fluoropyrimidin-2-yl)azetidin-1-yl)cyclohexyl)-oxy)-1-oxoisoindolin-2-yl)piperidine-2,6-dione], the inhibition at 1 µM at IKZF2 (Helios) [1] was 74.9%. Besides, the DC50 on IKZF2 (Helios) [2] is 0.0299 µM; on IKZF3 (Aiolos) it was above 30 µM; at IKZF1 (Ikaros), above 30 µM.

`COc1cc(C2CN(C3CCCCC3Oc3ccc4c(c3)CN(C3CCC(=O)NC3=O)C4=O)C2)ccn1` (centres unmarked) [Compound 11-B, 3-(5-((2-(3-(2-methoxypyridin-4-yl)azetidin-1-yl)cyclohexyl)oxy)-1-oxoisoindolin-2-yl)piperidine-2,6-dione] displayed an inhibition at 1 µM against IKZF2 (Helios) [1] of 78.2%. Besides, the figures for the DC50 at IKZF2 (Helios) [2], on IKZF3 (Aiolos) and on IKZF1 (Ikaros) were 0.0207 µM, above 30 µM and above 30 µM, respectively.

As to `COc1ccc(C2CN(C3CCCCC3Oc3ccc4c(c3)CN(C3CCC(=O)NC3=O)C4=O)C2)cn1` (centres unmarked) [Compound 16-B, 3-(5-((2-(3-(6-methoxypyridin-3-yl)azetidin-1-yl)cyclohexyl)oxy)-1-oxoisoindolin-2-yl)piperidine-2,6-dione], the inhibition at 1 µM against IKZF2 (Helios) [1] worked out at 80.6%. For the same compound, the DC50 at IKZF2 (Helios) [2] was 0.0226 µM; on IKZF3 (Aiolos), above 30 µM; on IKZF1 (Ikaros), above 30 µM.

Take `O=C1CCC(N2Cc3cc(OC4CCCCC4N4CC(c5cnc6ccccc6n5)C4)ccc3C2=O)C(=O)N1` (centres unmarked) [Compound 21-B, 3-(1-oxo-5-((2-(3-(quinoxalin-2-yl)azetidin-1-yl)cyclohexyl)oxy)isoindolin-2-yl)piperidine-2,6-dione]: the inhibition at 1 µM at IKZF2 (Helios) [1] is 72.5%. Further, the half-maximal degradation concentration (DC50) is 0.0382 µM on IKZF2 (Helios) [2], above 30 µM on IKZF3 (Aiolos) and above 30 µM on IKZF1 (Ikaros).

`O=C1CCC(N2Cc3cc(OC4CCCCC4N4CC(c5ncc(Cl)cn5)C4)ccc3C2=O)C(=O)N1` (centres unmarked) [Compound 26-B, 3-(5-((2-(3-(5-chloropyrimidin-2-yl)azetidin-1-yl)cyclohexyl)oxy)-1-oxoisoindolin-2-yl)piperidine-2,6-dione] yielded an inhibition at 1 µM on IKZF2 (Helios) [1] of 78.4%. Also, the values for the DC50 at IKZF2 (Helios) [2], on IKZF3 (Aiolos) and at IKZF1 (Ikaros) were 0.525 µM, above 30 µM and above 30 µM, respectively.

In the case of `O=C1CCC(N2Cc3cc(OC4CCCCC4N4CC(c5ccncc5)C4)ccc3C2=O)C(=O)N1` (centres unmarked) [Compound 31-B, 3-(1-oxo-5-((2-(3-(pyridin-4-yl)azetidin-1-yl)cyclohexyl)oxy)isoindolin-2-yl)piperidine-2,6-dione], at IKZF2 (Helios) [1], testing at 1 µM gave an inhibition of 74%. Further, the values for the DC50 on IKZF2 (Helios) [2], at IKZF3 (Aiolos) and on IKZF1 (Ikaros) were 0.0478 µM, above 30 µM and above 30 µM, respectively.

`O=C1CCC(N2Cc3cc(OC4CCCCC4N4CC(c5cccnc5)C4)ccc3C2=O)C(=O)N1` (centres unmarked) [Compound 36-B, 3-(1-oxo-5-((2-(3-(pyridin-3-yl)azetidin-1-yl)cyclohexyl)oxy)isoindolin-2-yl)piperidine-2,6-dione]: 1 µM produced 49.9% inhibition against IKZF2 (Helios) [1]. Also, the DC50 on IKZF2 (Helios) [2] is 0.188 µM; on IKZF3 (Aiolos), above 30 µM; at IKZF1 (Ikaros), above 30 µM.

`O=C1CCC(N2Cc3cc(OC4CCCCC4N4CC(c5ncccn5)C4)ccc3C2=O)C(=O)N1` (centres unmarked) [Compound 46-B, 3-(1-oxo-5-((2-(3-(pyrimidin-2-yl)azetidin-1-yl)cyclohexyl)oxy)isoindolin-2-yl)piperidine-2,6-dione] showed an inhibition at 1 µM at IKZF2 (Helios) [1] of 39%. For the same compound, the DC50 was 0.232 µM on IKZF2 (Helios) [2], above 30 µM at IKZF3 (Aiolos) and above 30 µM at IKZF1 (Ikaros).

As to `O=C1CCC(N2Cc3cc(OC4CCCCC4N4CC(c5ccccn5)C4)ccc3C2=O)C(=O)N1` (centres unmarked) [Compound 51-B, 3-(1-oxo-5-((2-(3-(pyridin-2-yl)azetidin-1-yl)cyclohexyl)oxy)isoindolin-2-yl)piperidine-2,6-dione], at 1 µM the inhibition at IKZF2 (Helios) [1] was 24%. Moreover, the figures for the DC50 on IKZF2 (Helios) [2], at IKZF3 (Aiolos) and on IKZF1 (Ikaros) were 0.321 µM, above 30 µM and above 30 µM, respectively.

On to `Cc1cc(C2CN(C3CCCCC3Oc3ccc4c(c3)CN(C3CCC(=O)NC3=O)C4=O)C2)ccn1` (centres unmarked) [Compound 56-B, 3-(5-((2-(3-(2-methylpyridin-4-yl)azetidin-1-yl)cyclohexyl)oxy)-1-oxoisoindolin-2-yl)piperidine-2,6-dione], for which at 1 µM the inhibition against IKZF2 (Helios) [1] was 84.8%. The figures for the DC50 on IKZF2 (Helios) [2], at IKZF3 (Aiolos) and at IKZF1 (Ikaros) were 0.0111 µM, above 30 µM and above 30 µM, respectively.

Consider `O=C1CCC(N2Cc3cc(OC4CCCCC4N4CC(c5c[nH]c6ccccc56)C4)ccc3C2=O)C(=O)N1` (centres unmarked) [Compound 61-B, 3-(5-((2-(3-(1H-indol-3-yl)azetidin-1-yl)cyclohexyl)oxy)-1-oxoisoindolin-2-yl)piperidine-2,6-dione], for which the inhibition at 1 µM against IKZF2 (Helios) [1] was determined as 55.8%. The half-maximal degradation concentration (DC50) on IKZF2 (Helios) [2] was 0.026 µM; at IKZF3 (Aiolos), above 30 µM; at IKZF1 (Ikaros) it was above 30 µM.

Regarding `O=C1CCC(N2Cc3cc(OC4CCCCC4N4CC(c5ccnc6ccccc56)C4)ccc3C2=O)C(=O)N1` (centres unmarked) [Compound 66-B, 3-(1-oxo-5-((2-(3-(quinolin-4-yl)azetidin-1-yl)cyclohexyl)oxy)isoindolin-2-yl)piperidine-2,6-dione], the inhibition at 1 µM on IKZF2 (Helios) [1] stood at 86.4%. For the same compound, the figures for the DC50 on IKZF2 (Helios) [2], at IKZF3 (Aiolos) and at IKZF1 (Ikaros) were 0.0132 µM, above 30 µM and above 30 µM, respectively.

For the compound `O=C1CCC(N2Cc3cc(OC4CCCCC4N4CC(c5cccc6[nH]ncc56)C4)ccc3C2=O)C(=O)N1` (centres unmarked) [Compound 71-B, 3-(5-((2-(3-(1H-indazol-4-yl)azetidin-1-yl)cyclohexyl)oxy)-1-oxoisoindolin-2-yl)piperidine-2,6-dione], at IKZF2 (Helios) [1], the inhibition at 1 µM amounted to 79.3%. For the same compound, the DC50 at IKZF2 (Helios) [2] was 0.0283 µM; on IKZF3 (Aiolos) it was above 30 µM; on IKZF1 (Ikaros), above 30 µM.

In turn, `COc1ncc(C2CN(C3CCCCC3Oc3ccc4c(c3)CN(C3CCC(=O)NC3=O)C4=O)C2)cn1` (centres unmarked) [Compound 76-B, 3-(5-((2-(3-(2-methoxypyrimidin-5-yl)azetidin-1-yl)cyclohexyl)oxy)-1-oxoisoindolin-2-yl)piperidine-2,6-dione] showed an inhibition at 1 µM at IKZF2 (Helios) [1] of 84.6%. Moreover, the DC50 at IKZF2 (Helios) [2] is 0.0286 µM; at IKZF3 (Aiolos), above 30 µM; at IKZF1 (Ikaros), above 30 µM.

With `O=C1CCC(N2Cc3cc(O[C@H]4CCCC[C@@H]4N4CC(n5cccn5)C4)ccc3C2=O)C(=O)N1` (stereo partly drawn) [Compound 81-B, 3-(5-(((1S,2S)-2-(3-(1H-pyrazol-1-yl)azetidin-1-yl)cyclohexyl)oxy)-1-oxoisoindolin-2-yl)piperidine-2,6-dione], at 1 µM the inhibition against IKZF2 (Helios) [1] was 78%. For the same compound, the DC50 is 0.0965 µM at IKZF2 (Helios) [2], above 30 µM at IKZF3 (Aiolos) and above 30 µM at IKZF1 (Ikaros).
